Experimental data reported in patent US6498179B1, “Oxazole derivatives, their production and use” (Takeda Chemical Industries, Ltd., priority 1996, dated 2002).

Test system: KKA^y mice
Assay: Test for blood sugar depression in mice
Assay type: in vivo
Details: Mus musculus, 1 h; fasted male KKA^y mice, oral 30 mg/kg, 60 minutes after administration, compared with control group; read-out: Degree of Blood Glucose Depression (%) After 60 minutes
Method: After being fasted for 20 hours, 9- to 12-week-old, male KKA^y mice (five mice in each group) were orally given the test compound at a dose of 30 mg/kg/10 ml through a stomach tube. Control mice were orally given 5% gum arabic solution. Blood samples (70 μl) were obtained from orbital venous plexus through capillary tube before and 60 and 120 minutes after the administration of the test compound. Blood glucose was determined according to a glucose oxidase method using a commercial kit (Iatrochem, GIU(A), Iatron Labs. Inc.). Blood glucose level at 60 or 120 minutes of the test groups was compared with that of control group, and was shown as blood glucose depression (%) (Table 1).

SMILES	inhibition in vivo at 30 mg/kg [%]
O=C(O)CCc1oc(Sc2ccccn2)nc1-c1ccc(Cl)cc1 [Example 15, 4-(4-chlorophenyl)-2-(2-pyridylthio)-5-oxazolepropionic acid]	22
Cc1nccn1-c1nc(-c2ccc(Cl)cc2)c(CCC(=O)O)o1 [Example 25, 4-(4-chlorophenyl)-2-(2-methyl-1-imidazolyl)-5-oxazolepropionic acid]	38
CCc1nccn1-c1nc(-c2ccc(Cl)cc2)c(CCC(=O)O)o1 [Example 26, 4-(4-chlorophenyl)-2-(2-ethyl-1-imidazolyl)-5-oxazolepropionic acid]	32
O=C(O)CCc1oc(-n2cccn2)nc1-c1ccc(Cl)cc1 [Example 28, 4-(4-chlorophenyl)-2-(1-pyrazolyl)-5-oxazolepropionic acid]	24
CC(C)c1nccn1-c1nc(-c2ccc(Cl)cc2)c(CCC(=O)O)o1 [Example 31, 4-(4-chlorophenyl)-2-(2-isopropyl-1-imidazolyl)-5-oxazolepropionic acid]	27
CSc1nccn1-c1nc(-c2ccc(Cl)cc2)c(CCC(=O)O)o1 [Example 32, 4-(4-chlorophenyl)-2-(2-methylthio-1-imidazolyl)-5-oxazolep ropionic acid]	25
O=C(O)CCc1oc(-n2cnc3ccccc32)nc1-c1ccc(Cl)cc1 [Example 34, 4-(4-chlorophenyl)-2-(1-benzimidazolyl)-5-oxazolepropionic acid]	27

Same assay, conditions: Mus musculus, 2 h; fasted male KKA^y mice, oral 30 mg/kg, 120 minutes after administration, compared with control group; read-out: Degree of Blood Glucose Depression (%) After 120 minutes

SMILES	inhibition in vivo at 30 mg/kg [%]
O=C(O)CCc1oc(Sc2ccccn2)nc1-c1ccc(Cl)cc1 [Example 15, 4-(4-chlorophenyl)-2-(2-pyridylthio)-5-oxazolepropionic acid]	26
Cc1nccn1-c1nc(-c2ccc(Cl)cc2)c(CCC(=O)O)o1 [Example 25, 4-(4-chlorophenyl)-2-(2-methyl-1-imidazolyl)-5-oxazolepropionic acid]	27
CCc1nccn1-c1nc(-c2ccc(Cl)cc2)c(CCC(=O)O)o1 [Example 26, 4-(4-chlorophenyl)-2-(2-ethyl-1-imidazolyl)-5-oxazolepropionic acid]	27
O=C(O)CCc1oc(-n2cccn2)nc1-c1ccc(Cl)cc1 [Example 28, 4-(4-chlorophenyl)-2-(1-pyrazolyl)-5-oxazolepropionic acid]	33
CC(C)c1nccn1-c1nc(-c2ccc(Cl)cc2)c(CCC(=O)O)o1 [Example 31, 4-(4-chlorophenyl)-2-(2-isopropyl-1-imidazolyl)-5-oxazolepropionic acid]	28
CSc1nccn1-c1nc(-c2ccc(Cl)cc2)c(CCC(=O)O)o1 [Example 32, 4-(4-chlorophenyl)-2-(2-methylthio-1-imidazolyl)-5-oxazolep ropionic acid]	28
O=C(O)CCc1oc(-n2cnc3ccccc32)nc1-c1ccc(Cl)cc1 [Example 34, 4-(4-chlorophenyl)-2-(1-benzimidazolyl)-5-oxazolepropionic acid]	25

Test system: not given
Assay: not given
Details: not given

SMILES	melting point [°C]
Cc1nccn1-c1nc(-c2ccc(Cl)cc2)c(CCC(=O)NCCCl)o1	155 to 156
Cc1nccn1-c1nc(-c2ccc(Cl)cc2)c(CCCC(=O)NCCCl)o1	131 to 132
Cc1nccn1-c1nc(-c2ccc(Cl)cc2)c(CCCCCn2ccnc2)o1.Cl.Cl.O (hydrate or solvate)	197 to 199
O=C(O)CCc1oc(SCc2cccnc2)nc1-c1ccc(Cl)cc1 [Example 9, 4-(4-chlorophenyl)-2-(3-pyridylmethylthio)-5-oxazolepropionic acid]	129 to 130
Cc1nccn1-c1nc(-c2ccc(Cl)cc2)c(CCC(N)=O)o1 [Example 41, 4-(4-chlorophenyl)-2-(2-methyl-1-imidazolyl)-5-oxazolepropionamide]	215 to 216
Cc1nccn1-c1nc(-c2ccc(Cl)cc2)c(CCC2=NCCO2)o1 [Example 46, 4-(4-chlorophenyl)-2-(2-methyl-1-imidazolyl)-5-[2-(2-oxazolin-2-yl)ethyl]oxazole]	119 to 120
CCc1nccn1-c1nc(-c2ccc(Cl)cc2)c(CCC2=NCCO2)o1 [Example 50, 4-(4-chlorophenyl)-2-(2-ethyl-1-imidazolyl)-5-[2-(2-oxazolin-2-yl)ethyl]oxazole]	53 to 54
OCCCc1oc(-n2ccnc2)nc1-c1ccc(Cl)cc1 [Example 57, 4-(4-chlorophenyl)-2-(1-imidazolyl)-5-oxazolepropanol]	114 to 115
Cc1nccn1-c1nc(-c2ccc(Cl)cc2)c(CCC2=NCCS2)o1 [Example 60, 4-(4-chlorophenyl)-2-(2-methyl-1-imidazolyl)-5-[2-(2-thiazolin-2-yl)ethyl]oxazole]	73 to 74
CCOC(=O)CCCc1oc(-n2ccnc2C)nc1-c1ccc(Cl)cc1 [Example 64, ethyl 4-(4-chlorophenyl)-2-(2-methyl-1-imidazolyl)-5-oxazolebutyrate]	72 to 73
Cc1nccn1-c1nc(-c2ccc(Cl)cc2)c(CCCC2=NCCO2)o1 [Example 67, 4-(4-chlorophenyl)-2-(2-methyl-1-imidazolyl)-5-[3-(2-oxazolin-2-yl)propyl]oxazole]	88 to 89
CON(C)C(=O)CCc1oc(-n2ccnc2C)nc1-c1ccc(Cl)cc1 [Example 68, N-methoxy-N-methyl-4-(4-chlorophenyl)-2-(2-methyl-1-imidazolyl)-5-oxazolepropionamide]	116 to 117
Cc1nccn1-c1nc(-c2ccc(Cl)cc2)c(CCC=O)o1 [Example 69, 4-(4-chlorophenyl)-2-(2-methyl-1-imidazolyl)-5-oxazolepropionaldehyde]	109 to 110
Cc1nccn1-c1nc(-c2ccc(Cl)cc2)c(CCC2NCCS2)o1 (centres unmarked) [Example 70, 2-[2-[4-(4-chlorophenyl)-2-(2-methyl-1-imidazolyl)-5-oxazolyl]ethyl]thiazolidine]	110 to 111
Cc1nccn1-c1nc(-c2ccc(Cl)cc2)c(CCCOS(C)(=O)=O)o1 [Example 71, 3-[4-(4-chlorophenyl)-2-(2-methyl-1-imidazolyl)-5-oxazolyl]propyl methanesulfonate]	97 to 98
Cc1nccn1-c1nc(-c2ccc(Cl)cc2)c(CCO)o1 [Example 78, 4-(4-chlorophenyl)-2-(2-methyl-1-imidazolyl)-5-oxazolethanol]	159 to 160
CCOC(=O)CCCCc1oc(-n2ccnc2C)nc1-c1ccc(Cl)cc1 [Example 81, ethyl 4-(4-chlorophenyl)-2-(2-methyl-1-imidazolyl)-5-oxazolepentanoate]	93 to 94
Cc1nccn1-c1nc(-c2ccc(Cl)cc2)c(CCCCCCO)o1 [Example 84, 4-(4-chlorophenyl)-2-(2-methyl-1-imidazolyl)-5-oxazolehexanol]	70 to 71
Cc1nccn1-c1nc(-c2ccc(Cl)cc2)c(CCCCn2cncn2)o1 [Example 88, 1-[4-[4-(4-chlorophenyl)-2-(2-methyl-1-imidazolyl)-5-oxazolyl]butyl]1,2,4-triazole]	74 to 75
CCOC(=O)c1nccn1CCCCc1oc(-n2ccnc2C)nc1-c1ccc(Cl)cc1 [Example 92, ethyl 1-[4-[4-(4-chlorophenyl)-2-(2-methyl-1-imidazolyl)-5-oxazolyl]butyl]-2-imidazolecarboxylate]	134 to 135

Next, values leading:

melting point [°C]	SMILES
71 to 72	COC(=O)CCc1oc(Cl)nc1-c1ccc(Cl)cc1 [Example 1, methyl 2-chloro-4-(4-chlorophenyl)-5-oxazolepropionate]
169 to 170	O=C(O)CCc1oc(Cl)nc1-c1ccc(Cl)cc1 [Example 2, 2-chloro-4-(4-chlorophenyl)-5-oxazolepropionic acid]
148 to 149	CCOc1nc(-c2ccc(Cl)cc2)c(CCC(=O)O)o1 [Example 3, 4-(4-chlorophenyl)-2-ethoxy-5-oxazolepropionic acid]
116 to 117	CC(C)Oc1nc(-c2ccc(Cl)cc2)c(CCC(=O)O)o1 [Example 4, 4-(4-chlorophenyl)-2-isopropoxy-5-oxazolepropionic acid]
136 to 137	O=C(O)CCc1oc(Oc2ccccc2)nc1-c1ccc(Cl)cc1 [Example 5, 4-(4-chlorophenyl)-2-phenoxy-5-oxazolepropionic acid]
183 to 184	CSc1nc(-c2ccc(Cl)cc2)c(CCC(=O)O)o1 [Example 6, 4-(4-chlorophenyl)-2-methylthio-5-oxazolepropionic acid]
132 to 133	CC(C)Sc1nc(-c2ccc(Cl)cc2)c(CCC(=O)O)o1 [Example 7, 4-(4-chlorophenyl)-2-isopropylthio-5-oxazolepropionic acid]
125 to 126	O=C(O)CCc1oc(SCc2ccccn2)nc1-c1ccc(Cl)cc1 [Example 8, 4-(4-chlorophenyl)-2-(2-pyridylmethylthio)-5-oxazolepropionic acid]
156 to 157	O=C(O)CCc1oc(Sc2ccccc2)nc1-c1ccc(Cl)cc1 [Example 10, 4-(4-chlorophenyl)-2-phenylthio-5-oxazolepropionic acid]
160 to 161	Cc1ccc(Sc2nc(-c3ccc(Cl)cc3)c(CCC(=O)O)o2)cc1 [Example 11, 4-(4-chlorophenyl)-2-(4-methylphenylthio)-5-oxazolepropionic acid]
217 to 218	CNc1nc(-c2ccc(Cl)cc2)c(CCC(=O)O)o1 [Example 16, 4-(4-chlorophenyl)-2-methylamino-5-oxazolepropionic acid]
180 to 181	O=C(O)CCc1oc(N2CCOCC2)nc1-c1ccc(Cl)cc1 [Example 18, 4-(4-chlorophenyl)-2-morpholino-5-oxazolepropionic acid]
194 to 195	O=C(O)CCc1oc(-n2ccnc2)nc1-c1ccc(Cl)cc1 [Example 24, 4-(4-chlorophenyl)-2-(1-imidazolyl)-5-oxazolepropionic acid]
174 to 175	CCCc1nccn1-c1nc(-c2ccc(Cl)cc2)c(CCC(=O)O)o1 [Example 30, 4-(4-chlorophenyl)-2-(2-propyl-1-imidazolyl)-5-oxazolepropionic acid]
70 to 71	CCOC(=O)CCc1oc(-n2ccnc2C)nc1-c1ccc(Cl)cc1 [Example 52, ethyl 4-(4-chlorophenyl)-2-(2-methyl-1-imidazolyl)-5-oxazolepropionate]
211 to 212	O=C(O)CCCc1oc(Cl)nc1-c1ccc(Cl)cc1 [Example 62, 2-chloro-4-(4-chlorophenyl)-5-oxazolebutyric acid]
